From patent US9127027B2, “Epoxyeicosatrienoic acid analogs and methods of making and using the same” (The Medical College of Wisconsin, Inc., priority 2011, dated 2015)
pEC50, pIC50: −log10 of the molar value. Where two headings read alike, the source gives them in different places.

How the values were obtained:
[1] = tested on: angiotensin II induced hypertensive rats; test: Angiotensin II hypertension: telemetry blood pressure, heart rate, sodium and protein excretion; type: in vivo, rat; conditions: Ang II hypertension; for blood pressure at end of two-week treatment: 2 mg/d i.p., vehicle 150±3.2; for heart rate: vehicle 396±25.0
From the text: (§1) Telemetry Blood Pressure Measurement. To accurately detect changes in blood pressure and heart rate, telemetry transmitters (Data Sciences Inc., St. Paul, Minn.) were implanted in rats one week prior to the experimental period according to manufacturer's specifications while under pentobarbital anesthesia. In brief, an incision was made to expose the femoral artery that was occluded to allow insertion of the transmitter catheter. The catheter was secured in place with tissue glue and the transmitter body was sutured in place and the incision line was closed. Rats were allowed to recover from surgery and were returned to individual housing. A baseline arterial pressure was recorded for prior to the experimental period. Mean arterial pressure was continuously recorded throughout the experimental period.
Telemetry transmitters were implanted into male Sprague-Dawley rats (225-275 g) as described. After recording basal blood pressure, osmotic pumps were implanted (s.c.) to deliver angiotensin at a dose of 60 ng/min. EET analogs were administered by an osmotic pump (2 mg/d, i.p.) and blood pressure was continuously monitored.
Animals were placed in a metabolic cage and urine was collected in a conical tube. Samples were stored at −80° C. until assayed. Urinary protein excretion was assessed as an index for renal injury. Protein was determined by the Bradford colorimetric method and creatinine was determined by the picric acid colorimetric method.

bovine coronary artery = test: Vasorelaxant activity in bovine coronary artery rings precontracted with U-46619; type: cell-based; conditions: for Vascular Relax. % (10 μM): 100% relaxation = basal pre-U-46619 tension; for pEC50: Bos taurus
Protocol: Vasorelaxant activity was measured in bovine coronary artery. Bovine hearts were obtained and the left anterior descending coronary artery was dissected and cleaned of connective tissue. Vessels of 1 mm diameter were cut into rings of 3 mm width as previously described (3, 27, 39). […] The vessels were suspended from a pair of stainless steel hooks in a 6-ml water-jacketed organ chamber. […] One hook was anchored to a steel rod and the other hook to a force transducer (model FT-03C; Grass Instruments, West Warwick, R.I.). Tension of the vessel was measured by an ETH-400 bridge amplifier, and the data were acquired with a MacLab 8e analog-to-digital converter and MacLab software version 3.5.6 (AD Instruments, Milford, Mass.) and stored on a Macintosh computer for subsequent data analysis.
Basal tension was set at the length-tension maximum of 3.5 g and equilibrated for 1.5 h. KCl (40 mM) was added to the chamber until reproducible maximal contractions were maintained. […] Cumulative additions of compounds were added to the chamber. Between concentration-response curves, the chambers were rinsed with fresh Krebs buffer, 40 mM KCl was administered to determine the maximum contraction, and the vessels were rinsed. Consecutive concentration-response curves were performed with 14,15-EET followed by a concentration-response curve to a compound. The experiment was always repeated with the order of the agonists reversed. […] The relaxation was plotted versus compound concentration and the EC50 determined utilizing statistical software.

[2] = tested on: Spontaneously Hypertensive Rats (SHR); test: Telemetry blood pressure and heart rate in spontaneously hypertensive rats; type: in vivo, rat; conditions: for blood pressure after two weeks of treatment: 2 mg/d i.p. osmotic pump, vehicle 141±3.0; for heart rate: 2 mg/d i.p., vehicle 331±17.0
From the text: as §1
Telemetry transmitters were implanted into male SHR as described. After the surgical recovery period, baseline mean arterial pressure was recorded. In this series of experiments, EET analogs were administered by osmotic pump (2 mg/d, i.p.) and blood pressure was continuously monitored.

[3] = tested on: Wistar-Kyoto (WKY) rats administered cisplatin; test: Cisplatin-induced nephrotoxicity in rats pretreated with EET analogs; type: in vivo, rat; conditions: for BUN: day 5 after cisplatin 7 mg/kg i.p., vehicle 241±51; for urinary NAG / plasma creatinine (PCr) / KIM-1 urinary excretion: day 5 after cisplatin; for urinary NAG: vehicle 3.0±0.6; for plasma creatinine (PCr): vehicle 3.1±0.2; for KIM-1 urinary excretion: vehicle 296±94; for cisplatin-induced proteinuria: vehicle 53±5; for reductions in renal mRNA expressions of inflammatory markers (TNF-α, IL-6, IL-1β) / reduction in elevated renal expressions of GRP78 and caspase 12 mRNAs: cisplatin-administered rats; for reduction in elevated renal expressions of GRP78 and caspase 12 mRNAs: vs vehicle treatment; for decrease in kidney expression of NOX1 and gp91phox mRNAs / reduction in urinary excretion of NAG and KIM-1 / reduction of cisplatin-induced proteinuria / reductions in elevated serum creatinine and BUN: vs vehicle-treated cisplatin rats
From the text: Experiments were approved and carried out according to the guidelines of the Institutional Animal Care and Use Committee, Medical College of Wisconsin, Milwaukee, USA. Male Wistar-Kyoto (WKY) rats weighing 180-200 g (Charles River, Mass., USA). All animals were kept in a temperature-controlled environment with a 12-h light/dark cycle and were allowed free access to food and water at all times. An acclimatization period of 6 days was allowed for the rats before experimentation. The rats were assigned into four groups. Group 1 (WKY, n=5-7): Rats received drinking water ad libitum for seven days and on day 7 DMSO (Sigma Aldrich, St. Louis, Mo., USA) was administered (300-500 μl i.p). […] Group 2 (CP+Vehicle, n=5-7): Rats were pretreated with vehicle (0.05% ethanol and 0.1% PEG-400 v/v) in drinking water for seven days and then on day 7 CP was administered (7 mg/kg i.p.) followed by another five days treatment with vehicle. Group 3 (CP+EET-A, n=5-7): These rats are pretreated with the EET analog EET-A (10 mg/kg/day p.o.) for seven days in drinking water and then on day 7 administered CP as a single injection (7 mg/kg i.p.) followed by another five days treatment with EET-A. Group 4 (CP+EET-B, n=5-7): Rats of this group are pretreated with another EET analog EET-B (10 mg/kg/day) for 7 days in drinking water and then on day 7 CP was administered as a single injection (7 mg/kg i.p.) followed by another five days treatment with EET-B. Rats of groups 2, 3 and 4 had free access to vehicle, EET-A and -B in drinking water, respectively. One day before the rats were sacrificed, urine of each rat was collected over a 24-h period, and the volume was measured. Five days after CP or DMSO administration, rats were anesthetized for blood sample collection followed by euthanasia and tissue collection. Urine and plasma samples were kept frozen at −80° C. until analyzed. The kidneys were removed, washed with physiological saline and stored at −80° C. until used for RT-PCR analysis, thiobarbituric acid reactive substance (TBARS) measurement and caspase 3 activity assay. A part of the kidney also preserved in 10% buffered formalin for histological examination.
The levels of blood urea nitrogen (BUN) (BioAssay Systems, Hayward, Calif., USA) and serum creatinine (Cayman Chemical Company, Ann Arbor, Mich., USA) were measured spectrophotometrically using commercial kits. Urinary content of creatinine and protein were measured using commercial kits (Cayman Chemical Company, Ann Arbor, Mich., USA), and the activity of urinary N-acetyl-b-glucosaminidase (NAG) in the urine was measured by a kit from Diazyme (Diazyme Laboratories, Poway, Calif., USA). While urine content of kidney injury molecule-1 (KIM-1) was measured using ELISA (R&D Systems, Inc. Minneapolis, Minn., USA).
Malondialdehyde (MDA) is a thiobarbituric acid reactive substance (TBARS) that is formed as an end-product of lipid peroxidation and serves as an important index of oxidative stress. To determine the kidney MDA level, the rat kidney was homogenized with buffer containing 1.5% potassium chloride to obtain a 1:10 (w/v) whole kidney homogenate. Using a commercially available kit (Cayman Chemical Company, Ann Arbor, Mich., USA), MDA was measured spectrophotometrically after reaction with thiobarbituric acid. […]
Real-Time analysis was carried out to assess the expression of oxidative (gp91phox, NOX1, SOD1, SOD2, SOD3), inflammatory (TNF-α, IL-6, IL-1β), apoptotic (Bax, Bak, Bcl-2) and endoplasmic reticulum stress (GRP78, caspase 12) related genes in the kidney. Total RNA was isolated from kidney homogenate using TRIzol LS reagents (Invitrogen Life Technologies, Carlsbad, Calif., USA) according to the manufacturer's instructions. The isolated RNA was treated with RNase-free DNase (Invitrogen, Carlsbad, Calif., USA) to remove traces of genomic DNA contamination. […]

Human recombinant sEH = Human recombinant sEH (Homo sapiens (Human), UniProt P34913); test: Soluble epoxide hydrolase inhibition (PHOME fluorescent substrate); type: biochemical; conditions: for IC50: Table 1 head prints μM (Table 2 prints nM for same numbers), read-out: sEHi IC50; for pIC50: Table 2, read-out: SEHi activity IC50
Sequence of Human recombinant sEH (P34913 whole entry): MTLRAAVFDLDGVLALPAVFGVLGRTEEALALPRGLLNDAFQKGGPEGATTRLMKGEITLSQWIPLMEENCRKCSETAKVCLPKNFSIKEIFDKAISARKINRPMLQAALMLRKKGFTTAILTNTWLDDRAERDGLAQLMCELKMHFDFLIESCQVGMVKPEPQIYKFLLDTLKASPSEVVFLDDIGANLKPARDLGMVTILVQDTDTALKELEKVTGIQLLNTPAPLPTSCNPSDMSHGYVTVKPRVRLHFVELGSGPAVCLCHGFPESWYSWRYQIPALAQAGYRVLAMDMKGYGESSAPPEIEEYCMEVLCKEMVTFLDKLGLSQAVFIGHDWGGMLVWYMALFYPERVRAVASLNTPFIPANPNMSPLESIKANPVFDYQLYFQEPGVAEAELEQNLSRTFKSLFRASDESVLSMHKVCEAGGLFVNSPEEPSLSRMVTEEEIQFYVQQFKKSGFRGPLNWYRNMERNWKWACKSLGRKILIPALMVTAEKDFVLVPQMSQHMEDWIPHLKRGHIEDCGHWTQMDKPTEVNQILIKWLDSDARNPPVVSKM
Protocol: Compounds were tested for their ability to inhibit recombinant soluble epoxide hydrolase (sEH) protein. The assay utilizes (3-Phhenyl-oxiranyl)-acetic acid cyano-(6-methoxy-naphthalen-2-yl)-methyl ester (PHOME), a sensitive substrate for sEH that can be used to monitor the activity of both human and murine enzymes. […] Human recombinant sEH was incubated with substrate and compounds ranging in concentration from 0.1 to 1000 nM.

[4] = Table 2, read-out: Vascular relaxation EC50
[5] = bovine coronary artery, read-out: Vascular Relax. EC50

## CCCCCCC(=O)N(CCCCCOc1cccc2sc(NC(C)=O)nc12)C(C)C [Compound 30, N-(5-(2-Acetamidobenzo[d]thiazol-4-yloxy)pentyl)-N-isopropylheptanamide]
[1]
  blood pressure at end of two-week treatment: 107±2.0 mmHg
[1]; two weeks, vehicle 1.9±0.7
  sodium excretion (natriuresis): 2.7 ± 0.3 mmol/day
[1]; two weeks
  heart rate: 385±16.0 BPM
Bovine coronary artery
  Vascular Relax. % (10 μM): 96%
Bovine coronary artery; Table 2
  Vascular relaxation % relaxation (10 μM): 96%
[2]
  blood pressure after two weeks of treatment: 129±2.0 mmHg
  heart rate: 318±24.0 BPM
[2]; two weeks treatment
  decrease in blood pressure compared to vehicle: 12 mmHg

## CCCCCNC(=O)NCCCC/C=C\CCCCCCC(=O)NC(CC(=O)[O-])C(=O)[O-].[Na+].[Na+] [EET-A, Sodium (S)-2-(13-(3-pentylureido)tridec-8(Z)-enamido)succinate]
[3]; 10 mg/kg/d p.o., after cisplatin, vehicle 16±2
  kidney TBARS formation: 7 ± 1 µmol/g
[3]; 10 mg/kg/d p.o.
  BUN: 108 ± 30 mg/dL
  urinary NAG: 0.5±0.1 U/d
  plasma creatinine (PCr): 2.0 ± 0.2 mg/dL
  KIM-1 urinary excretion: 85 ± 29 ng/day
  cisplatin-induced proteinuria: 33 ± 8 mg/day
[3]
  reductions in renal mRNA expressions of inflammatory markers (TNF-α, IL-6, IL-1β): 40-60%
  reduction in elevated renal expressions of GRP78 and caspase 12 mRNAs: 2-4 fold
  decrease in kidney expression of NOX1 and gp91phox mRNAs: 2-3 folds
  reduction in urinary excretion of NAG and KIM-1: 30-50%
  reduction of cisplatin-induced proteinuria: ≥ 40%
  reductions in elevated serum creatinine and BUN: 30-50%

## CCCCCNC(=O)NCCCC/C=C\CCCCCCc1nnn[nH]1 [Compound 20]
Bovine coronary artery
  Vascular Relax. % (10 μM): 119%
Bovine coronary artery; Table 2
  Vascular relaxation % relaxation (10 μM): 119%
Bovine coronary artery; [4]
  pEC50: 6.74
Bovine coronary artery; [5]
  pEC50: 6.74
Human recombinant sEH
  IC50: 0.011 µM
  pIC50: 7.96
[2]
  blood pressure after two weeks of treatment: 137±1.0 mmHg

## CCCCCNC(=O)NCCCC/C=C\CCCCCCC(=O)N[C@@H](CC(=O)O)C(=O)O (stereo in doubt) [Compound 7, (S)-2-(13-(3-n-Pentylureido)tridec-8(Z)-enamido)succinic acid]
[1]
  blood pressure at end of two-week treatment: 135±5.0 mmHg
[1]; two weeks
  heart rate: 410±25.0 BPM
Bovine coronary artery
  Vascular Relax. % (10 μM): 91%
Bovine coronary artery; Table 2
  Vascular relaxation % relaxation (10 μM): 91%
Bovine coronary artery; [4]
  pEC50: 5.80
Bovine coronary artery; [5]
  pEC50: 5.80
[2]
  blood pressure after two weeks of treatment: 131±2.0 mmHg
  heart rate: 316±23.0 BPM

## CCCCCCC(=O)N(CCCC/C=C\CCCCCCC1=NOS(=O)N1)C(C)C (stereo not drawn) [Compound 26]
Bovine coronary artery
  Vascular Relax. % (10 μM): 109%
Bovine coronary artery; Table 2
  Vascular relaxation % relaxation (10 μM): 109%
Bovine coronary artery; [4]
  pEC50: 6.49
Bovine coronary artery; [5]
  pEC50: 6.49
Human recombinant sEH
  IC50: > 0.5 µM
  pIC50: < 6.30
[2]
  blood pressure after two weeks of treatment: 150±5.0 mmHg
  heart rate: 344±23.0 BPM

## CCCCCCC(=O)N(CCCCCOc1cccc2sc(NC(=O)C(C)(C)C)nc12)C(C)C [EET-B, N-Isopropyl-N-(5-(2-pivalamidobenzo[d]thiazol-4-yloxy)pentyl)heptanamide]
[3]; 10 mg/kg/d p.o.
  BUN: 120 ± 33 mg/dL
  urinary NAG: 0.6±0.2 U/d
  plasma creatinine (PCr): 1.4 ± 0.2 mg/dL
  KIM-1 urinary excretion: 57 ± 13 ng/day
  cisplatin-induced proteinuria: 32 ± 3 mg/day
[3]
  reductions in renal mRNA expressions of inflammatory markers (TNF-α, IL-6, IL-1β): 40-60%
  reduction in elevated renal expressions of GRP78 and caspase 12 mRNAs: 2-4 fold
  decrease in kidney expression of NOX1 and gp91phox mRNAs: 2-3 folds
  reduction in urinary excretion of NAG and KIM-1: 30-50%
  reduction of cisplatin-induced proteinuria: ≥ 40%
  reductions in elevated serum creatinine and BUN: 30-50%
